Read-outs that look alike come from different tables or passages of the source.
Assays:
[1] = cited from earlier work
[2] = Absorption spectrum of perylene diimide (Example 5); type: physicochemical; conditions: CH2Cl2
Solubility = conditions: polar organic solvents
[3] = Emission spectrum and quantum yield of perylene diimide (Example 5); type: physicochemical
[4] = Fluorescence lifetime by TCSPC (Example 5); type: physicochemical; conditions: room temperature, CH2Cl2
Method: (§1) Luminescence lifetimes were measured with an IBH time-correlated single photon counting (TCSPC) system equipped with an IBH Model TBX-04 Photon Detection Module. The excitation source for the TCSPC measurements was a pulsed LED (IBH NanoLED, 455 nm, 1.3 ns pulse duration or 403 nm, <200 ps pulse duration) with a repetition rate of 1 MHz. All data was analyzed by iterative reconvolution of the decay profile (10,000 counts at the peak channel) with the instrument response function using software provided by the instrument manufacturer.

[5] = depending on the solvent
Method: as §1

[6] = not given; remark: listed apart in the source
[7] = Fluorescence quenching by 2,4-dinitrotoluene (Stern-Volmer); conditions: concentrated and dilute solutions in toluene
[8] = Sodium sensing: quantum yield vs sodium perchlorate concentration; conditions: in acetonitrile
Method: The benzo 15-crown-5 anthracene diimide derivative was synthesized because crown ethers are known for their ability to bind with metals. […] The extinction coefficient, ∈, was determined to be 16,000 M^−1 cm^−1 and the quantum yield, Φ, 0.02 (both were measured in acetonitrile). The emission spectrum for this compound was more complicated than the others. An excimer effect was evident in higher concentration samples and was more prominent in non-polar solvents. The excimer complicated the lifetime in toluene with a short component for the excited dimer state.

## F[P-](F)(F)(F)(F)F.F[P-](F)(F)(F)(F)F.[Ru+2].c1ccc(-c2ccccn2)nc1.c1ccc(-c2ccccn2)nc1.c1ccc(-c2ccccn2)nc1 [[Ru(bpy)3](PF6)2]
[1]; in CH3CN
  Φr of standard: 0.062

## c1ccc2cc3ccccc3cc2c1 [anthracene]
[1]; in EtOH
  Φr of standard: 0.27

## CCCCCCCCn1c(=O)c2c(-c3ccccc3)c3cccc4c3c(c3cccc5c(-c6ccccc6)c6c(=O)n(CCCCCCCC)c(=O)c6c4c53)c2c1=O [Compound 59, N,N′-Bis(octyl)-3,9-bis(phenyl)-perylene-1,2,7,8-tetracarboxyl diimide]
[2]; at absorption λmax
  extinction coefficient: 29,000 M^−1 cm^−1
[2]; room temperature
  absorption λmax: ~491 nm
Solubility
  solubility: soluble in polar organic solvents
[3]; measured against fluorescein
  quantum yield: 0.67
[3]; room temperature, CH2Cl2
  Stokes' shift: 26 nm
[3]; room temperature, CH2Cl2, 425 nm excit.
  fluorescence λmax: 517 nm
[4]
  single exponential lifetime: 5.01 ns

## N,N′-Bis(methyl 18-crown-6)-1,5-bis(phenyl)anthracene-2,3,6,7-tetracarboxyl diimide
In toluene
  extinction coefficient, ∈: 12,500 M^−1 cm^−1
[5]
  lifetime (single exponential): 5.5-6.5 ns
[6]; in toluene
  quantum yield, Φ: 0.37

## N,N′-Bis(p-triphenyl amine)-1,5-bis(phenyl)anthracene-2,3,6,7-tetracarboxyl diimide
In toluene
  extinction coefficient, ∈: 22,000 M^−1 cm^−1
[6]; in toluene
  quantum yield, Φ: 0.09
[7]
  2,4-dinitrotoluene sensing (quenching): effective 2,4-dinitrotoluene (DNT) sensor

## N,N′-Bis(benzo 15-crown-5)-1,5-bis(phenyl)anthracene-2,3,6,7-tetracarboxyl diimide
In acetonitrile
  extinction coefficient, ∈: 16,000 M^−1 cm^−1
[6]; in acetonitrile
  quantum yield, Φ: 0.02
[8]
  sodium sensing: effective sensor of sodium perchlorate
